Reference: PMC5017749, “Preclinical Metabolism, Pharmacokinetics and In Vivo Analysis of New Blood-Brain-Barrier Penetrant Fingolimod Analogues: FTY720-C2 and FTY720-Mitoxy” (PLoS ONE, 2016)
Like-named read-outs stand apart in the source and are kept apart here.

Experiment: Plasma and brain pharmacokinetics after single oral or intravenous dosing of mice
Format: in vivo
Settings: for Tmax / half-life: male; for oral bioavailability: single oral dose; for half-life: iv
Description: The objectives of this study were to evaluate the pharmacokinetic profiles of FTY720-C2 and FTY720-Mitoxy following single oral and intravenous (IV) dosing of male mice and to determine blood and tissue levels of both compounds at various postdose time points. Male C57BL/6 mice were 8.4 weeks of age and weighed 20.6–24.8 g on the day of dose administration. Each animal was identified by a unique number via an ear tag with a matching cage tag. Mice were administered (two mice per time point) a single equivalent molar dose of either FTY720-C2 (1 mg/kg) or FTY720-Mitoxy (2 mg/kg) by oral or intravenous administration. As the molecular weight of FTY720-Mitoxy (704.72 g/mol) is ~ two times greater than that of FTY720-C2 (349.51 g/mol), the dose level of FTY720-Mitoxy was double that of FTY720-C2. Details of the design showing group assignments, dose groups, dose levels, as well as blood collection and necropsy time points are shown in Table 2. At the appropriate time points after dosing and blood sample collection for bioanalysis, animals were euthanized by CO2 inhalation until unresponsive, followed by decapitation. Brains were rapidly harvested, rinsed with ice cold saline, blotted dry and bisected along the mid-line. The left and right hemispheres of the brain were weighed separately. Each was placed in separate tubes, immediately flash frozen in liquid nitrogen and stored at -70°C prior to evaluation. All samples were labeled with the test facility study number, animal identification number, dose group, date, collection interval, and tissue identity (left or right brain hemisphere). Adrenal glands from each mouse were also collected and flash frozen.
FTY720-C2 and FTY720-Mitoxy concentrations in plasma and brain were determined by LC-MS/MS. Samples were first prepared by liquid-liquid extraction. To 50 μL of plasma or brain homogenate were added 50 μL of 0.1 M NaOH and 50 μL of internal standard solution (C17 sphingosine) in ethanol. Analytes were then extracted into 1 mL of methyl tert-butyl ether:dichloromethane mixture (75:25, v/v) by vortexing for 1 hr and centrifuged. Supernatants were evaporated to dryness under nitrogen. Residues were reconstituted in 150 μL of 50% methanol in water and spin filtered before applied onto XBridge C18 column (3.5-μm particle; Waters, Milford, MA) with a SecurityGuard C18 guard column (4.0 × 2.0 mm; Phenomenex Inc.). Separations were accomplished with a gradient of 0.1% acetic acid in water (v/v) versus 0.1% acetic acid in acetonitrile:methanol (75:25, v/v) at a rate of 0.5 mL/min. The eluents were further applied into an equipped API 4000 QTrap mass spectrometer (AB Sciex, Foster City, CA) with electrospray ionization (ESI) interface by two coupled LC-10 AT pumps, and monitored in multiple reaction monitoring (MRM) mode with precursor to product ion pairs for C17 sphingosine, FTY720-C2, and FTY720-Mitoxy as following: m/z 286.3 to 268.2, m/z 350.3 to 255.2, and m/z 624.4 to 289.2, respectively.
Pharmacokinetic analysis was conducted using WinNonlin Version 6.2 (Pharsight, Mountain View CA), operating as a validated software system. Non-compartmental analysis was conducted using a bolus intravenous administration model for IV dosing and an extravascular administration model for oral dosing. The peak plasma concentration, time to achieve peak plasma concentration, half-life, mean residence time, and area under the plasma or brain concentration-time curve (Cmax, Tmax, T1/2, and AUC) were calculated from mean animal plasma and brain concentrations. Nominal blood collection times were used for pharmacokinetic calculations.

[1] = IV administration, sampling 5 min, 8, 24, 48 hr
[2] = oral administration, 1 mg/kg, first sampling time point

Structure (SMILES) | detected in plasma and brain up to (postdose) [1] [h] | time to penetrate the blood-brain-barrier after delivery (IV dosing) [min] | brain concentrations compared with plasma at 8 hr postdose (after both IV and oral dosing, 8 hr postdose) | Tmax (C57BL/6, mouse, brain, IV dosing, FTY720-C2 1 mg/kg or FTY720-Mitoxy 2 mg/kg, first sampling time point, read-out: Tmax / time of highest concentration in brain (converted)) [min] | Tmax (C57BL/6, mouse, plasma, IV dosing, FTY720-C2 1 mg/kg or FTY720-Mitoxy 2 mg/kg, first sampling time point, read-out: Tmax / time of highest concentration in plasma (converted)) [min] | partitioning to brain (mice) | oral bioavailability (mice) | time of highest concentration in brain [2] [h] | time of highest concentration in plasma [2] [h] | detected in plasma and brain up to (postdose) (oral administration, sampling 1, 8, 24, 48 hr) [h] | Tmax / time of highest concentration in brain (IV dosing, FTY720-C2 1 mg/kg or FTY720-Mitoxy 2 mg/kg, first sampling time point) [min] | half-life (mouse, in vivo, 2 mg/kg, IV dosing, 2 mg/kg, read-out: brain elimination half-life (converted)) [min] | half-life (mouse, in vivo, 2 mg/kg, IV dosing, 2 mg/kg, read-out: plasma elimination half-life (converted)) [min] | half-life (mouse, in vivo, 2 mg/kg, mice, IV, plasma and brain, read-out: half-lives) [min] | Tmax (mouse, in vivo, IV dosing, FTY720-C2 1 mg/kg or FTY720-Mitoxy 2 mg/kg, first sampling time point, read-out: Tmax / time of highest concentration in plasma (converted)) [min] | detection in plasma or brain following oral dosing (oral, 2 mg/kg)
CCCCCCCCc1ccc(CCC(CO)(CO)NC(C)=O)cc1 [FTY720-C2, N-(1-hydroxy-2-(hydroxymethyl)-4-(4-octylphenyl)butan-2-yl)acetamide] | 8 | ≤ 5 | much higher | 5 | 5 | preferentially partition to brain | orally bioavailable | 1 | 1 | 8 |  |  |  |  |  | 
CCCCCCCCc1ccc(CCC(CO)(CO)NC(=O)CC[P+](c2ccccc2)(c2ccccc2)c2ccccc2)cc1 [FTY720-Mitoxy, N-(1-hydroxy-2-(hydroxymethyl)-4-(4-octylphenyl)butan-2-yl)-3’-triphenylphosphoniumpropanamide] | 48 | ≤ 5 |  |  |  | preferentially partition to brain | not orally bioavailable |  |  |  | 5 | 106 | 56.4 | < 120 | 5 | not detected
